From patent US8088822B2, “Use of fenretinide or bioactive derivatives thereof and pharmaceutical compositions comprising the same” (priority 2008, dated 2012)
Where a SMILES comes first, the peptide text is derived from it. The star is where a group is joined. Cbz = O=C(OCc1ccccc1)*

Legend:
[1] = system: CD34+CD38+ AML progenitor cells; experiment: Apoptosis of AML progenitor cells; format: cell-based, human; conditions: 1-7.5 μM, 48 h
Experimental: (§1) Primitive AML and CML subpopulations (CD34^+ cells) were identified using CD34-PE in combination with CD38-APC, and followed by double-labeling with 7AAD and Annexin V antibodies for apoptosis assessment. The CD34^+ cells were first stained with antibodies against the surface markers CD34-PE and CD38-APC (Beckman Coulter, Fullerton, Calif.) and incubated at room temperature for 15 minutes. Cells were then washed with cold PBS and resuspended in 200 μL annexin V 1×binding buffer (10 mM HEPES/NaOH, pH 7.4, 140 mM NaCl, 2.5 mM CaCl2), 5 μL AnnexinV-FITC (BD Phanningen, San Diego, Calif.) and 7-aminoactinomycin (7-AAD, 0.25 mg/mL) (Molecular Probes, Eugene, Oreg.). Subsequently, the samples were incubated at room temperature for 15 minutes and analyzed by flow cytometry.
(§2) To determine whether 4-oxo-N-(4-hydroxyphenyl)retinamide like fenretinide could preferentially target primitive leukemia cells, CD34^+ cells are isolated from bone marrow specimens of AML patients and subjected to apoptosis assay upon the treatment with 1-7.5 μM 4-oxo-N-(4-hydroxyphenyl)retinamide for 48 h.

[2] = system: CD34+CD38− AML stem cells; experiment: Apoptosis of AML stem cells; format: cell-based, human; conditions: 1-7.5 μM, 48 h
Experimental: as §1, §2

[3] = system: HL60 cells; experiment: MTT cell viability of quiescent and proliferating HL60 cells; format: cell-based; conditions: 0-10 μM, 24 and 48 h
Experimental: The cell viability was determined by 3-(4,5-dimethylthiazol-2-yl)-2,5-diphenyltetrazolium bromide (MTT) assay.
As previous case (Example 1), HL60 cells were chosen as serum deprived quiescent leukemic cell model obtained when incubated in RPMI 1640 without serum for 48 h. Serum-deprived quiescent leukemic cells and proliferating leukemic cells were then cultured in media containing 0.5% FBS, and treated with 0-10 μM 4-oxo-N-(4-hydroxyphenyl)retinamide for 24 and 48 h, respectively. The cell viability was test by MTT assay.

[4] = system: U937; experiment: Apoptosis in AML cell line U937; format: cell-based; conditions: U937, within 48 hours, alone or combined
Experimental: (§3) 2×10^5 cultured cells were used for evaluating apoptosis using an ApoAlert Annexin V-FITC Apoptosis Kit (BD Biosciences). Cells were washed once by PBS, resuspended in 200 μl Annexin-V binding buffer, and then stained with Annexin V-FITC 5 μl, PI 10 μl for 15 min at room temperature in the dark. Cells were subsequently analyzed by flow cytometry.
There are two observations that drive us in further exploring alternative therapeutic combinations. As illustrated in Example 6, proteasome inhibitors can potentate fenretinide-induced apoptosis in leukemia. […] The apoptosis rates were quite low when treated alone within 48 hours (nearly 5%), and the number doubled when treated by fenretinide and MG132.

[5] = system: U937; experiment: Growth inhibition and combination index in AML cell line U937; format: cell-based; conditions: U937, single agent
Experimental: The combination Index (CI) was used to test the combination effect of fenretinide and Ara-C on growth inhibition in AML cell line U937. The CI was calculated according to the classic isobologram equation: CI=d1/D1+d2/D2. In this equation, D1 and D2 represent the doses of drug 1 and drug 2 alone, required to produce x % effect, and d1 and d2 are the doses of drugs 1 and 2 in combination required to produce the same effect. And CI<1, CI>1 and CI=1 represent the synergism, […], respectively.

[6] = system: HL60 cells; experiment: Mitochondrial transmembrane potential (MTP) assay, Rh123/PI, HL60 cells; format: cell-based; conditions: quiescent HL60 cells; 20 μM IDA or 5 μM Ara-C
Experimental: (§4) HL60 cells were cultured in RPMI 1640 supplemented (i) with or (ii) without 10% fetal bovine serum to obtain proliferating and quiescent leukemia cells respectively. Serum-deprived quiescent leukemic cells and proliferating leukemic cells were then cultured in media containing 0.5% FBS, and treated with 1 μM and 2.5 μM fenretinide, and also with chemotherapeutics as controls, 20 μM idarubicin (IDA) and 5 μM cytarabine (Ara-C).
(§5) To examine the effects of fenretinide on proliferating and quiescent leukemia cells, HL60 cells were chosen as serum deprived quiescent leukemic cell model obtained when incubated in RPMI 1640 without serum for 48 h, with G0/G1 phase cells (being in quiescent state) accounting up to 59.9%. Serum-deprived quiescent leukemic cells and proliferating leukemic cells were then cultured in media containing 0.5% FBS, and treated with 1 μM and 2.5 μM fenretinide, and also with chemotherapeutics as controls, 20 μM idarubicin (IDA) and 5 μM cytarabine (Ara-C). […] Fenretinide induces intracellular production of ROS, lowers mitochondrial transmembrane potential (MTP), and eventually leads to apoptosis in a variety of malignancies. We measured MTP induced by fenretinide in proliferating and quiescent HL60 cells, as examined through rhodamine 123 and propidium iodide staining and followed by flow cytometry analysis. […] We further measured intracellular ROS abundance induced by fenretinide. […] After incubation with 1 μM and 2.5 μM fenretinide for 3 h, the ROS level of proliferating cells increased by 1.77 and 2.6 fold, respectively.

[7] = system: HL60 cells; experiment: Annexin V apoptosis assay in proliferating and serum-deprived quiescent HL60 cells; format: cell-based; conditions: 20 μM IDA
Experimental: as §4, §3, §5

[8] = system: K562; experiment: Apoptosis in CML cell line K562; format: cell-based; conditions: 4 μM fenretinide, 0.25 μM imatinib, 0.1 μM MG132, alone or combined
Experimental: as §3

[9] = system: MKN45; experiment: Apoptosis in gastric tumor cell line MKN45 (Rh123/PI, FACS); format: cell-based; conditions: MKN45, 48 hours; 4 μM fenretinide, 5 μM Tet, alone or co-treatment
Experimental: Loss of MTP was evaluated through rhodamine 123 (Rh123) and propidium iodide (PI) staining. 2×10^5 cells were washed by PBS and incubated with 1 μg/ml Rh123 at 37° C. for 30 min. After washed by PBS, 10 μl PI was added to cells for 15 min at room temperature in the dark. Fluorescence emission at 530 nm (representing R123 retention as a function of MTP) was measured with flow cytometry.
Fenretinide induces intracellular ROS and ER stress to activate series of molecular events including apoptotic pathway and such anti-apoptotic pathways as NF-κB cascade. NF-κB can mediate the progression of inflammation-related cancer. […] Unlike fenretinide, Tet is the well-known anti-cancer and anti-inflammation drugs via inhibiting the activity of NF-κB. For example, Tet, as the main effective component of Stephenia tetrandra S Moore, has bioactivities in reversing MDR (multidrug resistance), blocking calcium ion channel and so on. […] FIGS. 19A and 19B show synergistic induction of apoptosis by fenretinide and Tet, as evaluated by Rh123/PI double stain using FACS. […] Through annexin-V/PI double staining, synergistic apoptosis profiles of fenretinide/tetrandrine co-treated MKN45 and SGC7901 cells were also observed (see FIGS. 19C and 19D).

[10] = system: patients with CML; conditions: patients with CML treated with imatinib; cited from earlier work
[11] = system: CML CD34+ cells; experiment: Colony forming assay in primary CML CD34+ cells; format: cell-based, human; conditions: 0.25 μM imatinib, 4 μM fenretinide or both, 14 days
From the text: Fresh bone marrow (BM) cells were obtained from 38 patients with CML and 5 non-leukemic donors, 25 AML, 17 ALL, and 8 normal specimens with informed consent according to the Declaration of Helsinki. Approval was obtained from Institutional Review Board at the School of Medicine in Shanghai Jiao Tong University. BM mononuclear cells were isolated by Ficoll density gradient centrifugation (Shanghai Second Reagent Factory, Shanghai, China). CD34^+ Cell were selected using EasySep® Human CD34 Positive Selection kit (Stem Cell Technologies, Vancouver, BC, Canada) according to the manufacturer's instructions. […] The CD34^+ cells were cultured in a serum-free medium (StemPro 34; Gibco BRL, Gaithersburg, Md.) supplemented with growth factors (PeproTech, London, United Kingdom) (20). The growth factors consisted of GM-CSF (200 pg/mL), G-CSF (1 ng/mL); SCF (200 pg/mL); LIF (50 pg/mL), MIP-1α (200 pg/mL) and IL-6 (1 ng/mL).
A quantity of 1000 CD34^+ cells were plated in semisolid methylcellulose-based media (Methocult H4434: Stem Cell Technologies, Vancouver, BC, Canada). After incubation at 37° C. in a fully humidified atmosphere of 5% CO2 for 14 days, granulocyte macrophage-colony-forming units (CFU-GM), erythroid burst-forming units (BFU-E), granulocyte, erythrocyte and monocyte, megakaryocyte-colony-forming units (CUF-GEMM) were counted. Only clusters with >50 cells were counted as a colony.
We further performed study to examine the effects of fenretinide on colony forming in primary CML cells derived from 38 bone marrow specimens of CML patients (TABLE 1). First, CML CD34^+ Cells were isolated using EasySep® Human CD34 Positive Selection kit (Stem Cell Technologies, Vancouver, BC, Canada). Upon treated with 2 μM and 4 μM fenretinide, colony forming assays were performed respectively on granulocyte macrophage-colony-forming units (CFU-GM), erythroid burst-forming units (BFU-E), granulocyte, erythrocyte and monocyte, megakaryocyte-colony-forming units (CFU-GEMM).

[12] = system: NB4 cells; experiment: Antagonist assays, apoptosis of NB4 cells; format: cell-based; conditions: 100 μM vitamin C pre-treatment 2 hours, then 1 μM fenretinide 24 hours

With `CC1=C(/C=C/C(C)=C/C=C/C(C)=C/C(=O)Nc2ccc(O)cc2)C(C)(C)CCC1=O` [4-oxo-N-(4-hydroxyphenyl)retinamide] the “apoptosis of CD34+CD38+ AML progenitor cells” value [1] was “dose-dependent manner”, the “apoptosis of CD34+CD38− AML stem cells” value [2] was “dose-dependent manner” and the “sensitivity (cell viability, MTT) of serum-deprived quiescent versus proliferating HL60 cells” value [3] was “more sensitive”.

In the case of `Nc1ccn([C@@H]2O[C@H](CO)[C@@H](O)[C@@H]2O)c(=O)n1` [Ara-C, cytosine arabinoside], the apoptosis rate [4] is reported as roughly 5%, the “dose alone required for growth inhibition rate of 65.47%” value [5] is reported as 0.091 µM and the “change in MTP” value [6] is reported as “little change in MTP”.

With `CC(=O)[C@]1(O)Cc2c(O)c3c(c(O)c2[C@@H](O[C@H]2C[C@H](N)[C@H](O)[C@H](C)O2)C1)C(=O)c1ccccc1C3=O` [IDA, idarubicin] the “change in MTP” value [6] was “little change in MTP”, the apoptosis rate ([7]; proliferating HL60 cells) was 88.7% and the apoptosis rate ([7]; quiescent HL60 cells) was 29.1%.

Compound `CC(C)C[C@@H](C=O)NC(=O)[C@H](CC(C)C)NC(=O)[C@H](CC(C)C)NC(=O)OCc1ccccc1` [MG132, N-[(phenyl-methoxy)-carbonyl]-L-leucyl-N-[(1S)-1-formyl-3-methylbutyl]-L-Leucinamide] (Cbz-Leu-Leu-Leu-aldehyde) has an apoptosis rate [8] of 2.51% and an apoptosis rate [4] of roughly 5%.

`COc1ccc2cc1Oc1ccc(cc1)C[C@H]1c3cc(c(OC)cc3CCN1C)Oc1c(OC)c(OC)cc3c1[C@H](C2)N(C)CC3` [Tet, tetrandrine] gave an apoptosis [9] of 15.8%.

For `Cc1ccc(NC(=O)c2ccc(CN3CCN(C)CC3)cc2)cc1Nc1nccc(-c2cccnc2)n1` [imatinib, 4-[(4-methylpiperazin-1-yl)methyl]-N-[4-methyl-3-[(4-(3-pyridinyl)-pyrimidin-2-yl)amino]phenyl]benzamide], the apoptosis rate [8] is given as 12.8%, the “complete cytogenetic response (CCR)” value [10] is given as roughly 87% and the “GFU-GEMM formed by the more primitive progenitor cells” value [11] is given as “could be detected”.

With `O=C1O[C@H]([C@@H](O)CO)C([O-])=C1O.[Na+]` [vitamin C, ascorbic acid sodium salt] the “effect on fenretinide-induced apoptosis” value [12] was “completely abrogated”.
